# Patent US9745246B2, “Method for preparing a salt of acetylsalicylic acid and a basic amino acid” (UNITHER PHARMACEUTICALS, priority 2014, dated 2017)
# Columns and labels:
# [1] = Stability study, Experiment 1: dry product stored at 5° C. under inert atmosphere in the dark for 3 months; type: physicochemical; details: storage 5° C.; for Stability over time: 3 months
# Experimental: (§1) The analysis by HPLC is carried out according to the method of the European Pharmacopeia 2.2.29, as indicated below.
# (§2) Residual moisture content: halogen loss on desiccation in a desiccator 5 g/90° C./20 min.
# (§3) Water content: according to European Pharmacopeia 2.5.12, titration carried out by Karl Fisher titration on 1 g of ASL.
# (§4) according to European Pharmacopeia 2.2.3, a solution is reconstituted by dissolving 1 g of ASL in 10 ml of water free of carbon dioxide, with stirring for 30 s. Its appearance is evaluated and its pH is measured.
# (§5) Content of each unknown impurity: by HPLC assay, according to the operating protocol described above. The content of each impurity is determined by means of the following equation: […]
# A study of stability of the product obtained in example 1 is carried out by storing the dry product under an inert atmosphere and in the dark, at a temperature of 5° C., for a period of 3 months.
# At times T=0, T=1 month and T=3 months, a sample of product is taken and subjected to all the tests described in example 2.
# By way of comparative example, the same experiment is carried out on a product obtained by means of the preparation process of the prior art described in document WO 2011/039432, providing in particular a molar deficiency in DL-lysine (more specifically, with an acetylsalicylic acid/DL lysine molar ratio equal to 1/0.89).
# [2] = Stability study, Experiment 2: dry product (new synthesis batch) stored at 5° C. under inert atmosphere in the dark for 6 months; type: physicochemical; parameters: key to Appearance of the powder / Appearance of the reconstituted solution: C = complies; details: storage 5° C.
# Experimental: as §1, §2, §3, §4, §5
# A study of stability of the product obtained in example 1 (new synthesis batch) is carried out by storing the dry product under an inert atmosphere and in the dark, at a temperature of 5° C., for a period of 6 months.
# At times T=0, T=1 month, T=3 months and T=6 months, a sample of product is taken and subjected to all the tests described in example 2.
# [3] = time 0 months, listed as Method in accordance with the invention
# [4] = time 1 month, listed as Method in accordance with the invention
# [5] = time 3 months, listed as Method in accordance with the invention
substance,measurement,setting,value
DL-lysine acetylsalicylate [ASL],Stability over time,[1]; listed as product obtained by means of the method in accordance with the invention of exam,remains stable over time
same,Impurities (%): Other unknown impurity,[1]; time 0 months,0.02%
same,Impurities (%): Sum of the impurities,[1]; time 0 months,0.15%
same,Water content (%),[1]; time 0 months,0.4%
same,HPLC content of acetylsalicylic acid (%),[1]; [3],98.3%
same,Impurities (%): Salicylic acid,[1]; [3],0.13%
same,Residual moisture content (%),[1]; [3],0.4%
same,pH of the reconstituted solution,[1]; [3],5.9
same,Water content (%),[1]; time 1 month,0.5%
same,HPLC content of acetylsalicylic acid (%),[1]; [4],98.5%
same,Impurities (%): Other unknown impurity,[1]; [4],0.02%
same,Impurities (%): Salicylic acid,[1]; [4],0.17%
same,Impurities (%): Sum of the impurities,[1]; [4],0.22%
same,Residual moisture content (%),[1]; [4],0.6%
same,pH of the reconstituted solution,[1]; [4],5.6
same,Water content (%),[1]; time 3 months,0.3%
same,HPLC content of acetylsalicylic acid (%),[1]; [5],98.8%
same,Impurities (%): Other unknown impurity,[1]; [5],0.02%
same,Impurities (%): Salicylic acid,[1]; [5],0.21%
same,Impurities (%): Sum of the impurities,[1]; [5],0.25%
same,Residual moisture content (%),[1]; [5],0.6%
same,pH of the reconstituted solution,[1]; [5],5.5
same,Stability over time,[2]; 6 months,remains stable over time
same,Appearance of the powder,[2]; time 0 months,C
same,Appearance of the reconstituted solution,[2]; time 0 months,C
same,HPLC content of acetylsalicylic acid (%),[2]; time 0 months,97.5%
same,Impurities (%): Other unknown impurity,[2]; time 0 months,0.03%
same,Impurities (%): Salicylic acid,[2]; time 0 months,0.28%
same,Impurities (%): Sum of the impurities,[2]; time 0 months,0.32%
same,Residual moisture content (%),[2]; time 0 months,0.7%
same,Water content (%),[2]; time 0 months,0.4%
same,pH of the reconstituted solution,[2]; time 0 months,5.7
same,Appearance of the powder,[2]; time 1 month,C
same,Appearance of the reconstituted solution,[2]; time 1 month,C
same,HPLC content of acetylsalicylic acid (%),[2]; time 1 month,97.5%
same,Impurities (%): Other unknown impurity,[2]; time 1 month,0.03%
same,Impurities (%): Salicylic acid,[2]; time 1 month,0.28%
same,Impurities (%): Sum of the impurities,[2]; time 1 month,0.33%
same,Residual moisture content (%),[2]; time 1 month,0.5%
same,Water content (%),[2]; time 1 month,0.3%
same,pH of the reconstituted solution,[2]; time 1 month,5.8
same,Appearance of the powder,[2]; time 3 months,C
same,Appearance of the reconstituted solution,[2]; time 3 months,C
same,HPLC content of acetylsalicylic acid (%),[2]; time 3 months,98.1%
same,Impurities (%): Other unknown impurity,[2]; time 3 months,0.03%
same,Impurities (%): Salicylic acid,[2]; time 3 months,0.29%
same,Impurities (%): Sum of the impurities,[2]; time 3 months,0.33%
same,Residual moisture content (%),[2]; time 3 months,0.6%
same,Water content (%),[2]; time 3 months,0.3%
same,pH of the reconstituted solution,[2]; time 3 months,5.4
same,Appearance of the powder,[2]; time 6 months,C
same,Appearance of the reconstituted solution,[2]; time 6 months,C
same,HPLC content of acetylsalicylic acid (%),[2]; time 6 months,97.5%
same,Impurities (%): Other unknown impurity,[2]; time 6 months,0.03%
same,Impurities (%): Salicylic acid,[2]; time 6 months,0.30%
same,Impurities (%): Sum of the impurities,[2]; time 6 months,0.34%
same,Residual moisture content (%),[2]; time 6 months,0.6%
same,Water content (%),[2]; time 6 months,0.3%
same,pH of the reconstituted solution,[2]; time 6 months,6.3
"DL-lysine acetylsalicylate [Process of WO 2011/039432, reference compound]",Stability over time,[1]; listed as product obtained by means of a process of the prior art,much less stability over time
same,HPLC content of acetylsalicylic acid (%),[1]; time 0 months,93.6%
same,Impurities (%): Salicylic acid,[1]; time 0 months,1.9%
same,Residual moisture content (%),[1]; time 0 months,0.72%
same,pH of the reconstituted solution,[1]; time 0 months,5.2
same,HPLC content of acetylsalicylic acid (%),[1]; time 1 month,90.0%
same,Impurities (%): Other unknown impurity,[1]; time 1 month,0.026%
same,Impurities (%): Salicylic acid,[1]; time 1 month,1.9%
same,Impurities (%): Sum of the impurities,[1]; time 1 month,0.09%
same,Residual moisture content (%),[1]; time 1 month,0.61%
same,pH of the reconstituted solution,[1]; time 1 month,5.2
same,HPLC content of acetylsalicylic acid (%),[1]; time 3 months,91.6%
same,Impurities (%): Other unknown impurity,[1]; time 3 months,0.027%
same,Impurities (%): Salicylic acid,[1]; time 3 months,2.0%
same,Impurities (%): Sum of the impurities,[1]; time 3 months,0.07%
same,Residual moisture content (%),[1]; time 3 months,0.61%
same,pH of the reconstituted solution,[1]; time 3 months,5.1
